IC50 data for 19 molecules are collected here from patent US20240376099A1, “COMPOUNDS AND COMPOSITIONS AS INHIBITORS OF ENDOSOMAL TOLL-LIKE RECEPTORS” (Novartis AG, priority 2016, published 2024).

pIC50: −log10 of the molar value.

By pIC50 is commonly meant the negative decadic logarithm of the IC50, by convention in mol/L.

This experiment addresses T1, TLR7 (Homo sapiens, UniProt Q9NYK1).
T1 construct: Fresh blood was collected from normal human donors; endogenous in cells; host or cells: human PBMCs from fresh donor blood
T1 sequence (Q9NYK1 27-1049): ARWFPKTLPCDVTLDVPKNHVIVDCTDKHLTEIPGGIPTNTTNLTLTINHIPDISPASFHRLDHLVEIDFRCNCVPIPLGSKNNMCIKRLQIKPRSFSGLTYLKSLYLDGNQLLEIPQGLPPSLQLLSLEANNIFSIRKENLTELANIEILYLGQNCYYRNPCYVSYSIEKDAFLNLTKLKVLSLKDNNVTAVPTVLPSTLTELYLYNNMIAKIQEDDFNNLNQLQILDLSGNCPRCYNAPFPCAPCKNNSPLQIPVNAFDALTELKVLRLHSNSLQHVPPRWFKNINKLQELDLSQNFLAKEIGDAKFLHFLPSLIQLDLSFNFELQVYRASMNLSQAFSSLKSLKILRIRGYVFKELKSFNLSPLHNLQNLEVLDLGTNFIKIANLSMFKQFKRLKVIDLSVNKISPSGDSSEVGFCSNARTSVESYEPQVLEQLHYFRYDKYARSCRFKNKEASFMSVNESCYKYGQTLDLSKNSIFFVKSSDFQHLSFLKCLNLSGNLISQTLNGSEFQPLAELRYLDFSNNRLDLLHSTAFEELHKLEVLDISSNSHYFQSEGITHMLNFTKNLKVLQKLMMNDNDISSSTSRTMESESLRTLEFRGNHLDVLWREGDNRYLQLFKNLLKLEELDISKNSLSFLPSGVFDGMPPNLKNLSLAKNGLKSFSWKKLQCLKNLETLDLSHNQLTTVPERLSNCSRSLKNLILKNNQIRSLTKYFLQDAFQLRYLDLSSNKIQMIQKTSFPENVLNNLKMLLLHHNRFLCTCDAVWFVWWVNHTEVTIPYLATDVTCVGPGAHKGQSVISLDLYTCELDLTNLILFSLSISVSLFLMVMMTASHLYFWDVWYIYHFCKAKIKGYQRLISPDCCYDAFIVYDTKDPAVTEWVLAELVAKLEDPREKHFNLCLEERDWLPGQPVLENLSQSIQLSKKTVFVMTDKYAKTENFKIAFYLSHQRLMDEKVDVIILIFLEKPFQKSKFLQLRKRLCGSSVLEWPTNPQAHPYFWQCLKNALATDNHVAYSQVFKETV
The experiment can be described thus: huPBMC TLR7 Antagonist IFNα Assay. The experiment is classed as cell-based. The settings on record: human PBMCs stimulated with ssRNA40 10 μg/mL (DOTAP), 14-16 hrs; IFNα2b AlphaLISA read-out. In short, it runs like this: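 Human PBMCs from fresh donor blood (150,000 cells/well) stimulated 14–16 h at 37 °C with DOTAP-complexed ssRNA40 (final 1 μg/ml for TLR8, 10 μg/mL for TLR7) or ODN2216 (final 0.3 μM, TLR9), 0.25% DMSO, ten-point 1/3 compound dilutions. Supernatant IL-6 read by HTRF (TLR8); IFNα by IFNα2b AlphaLISA (TLR7/TLR9).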
(Bead proximity is the source of the signal in Alpha formats.)
As to `Cc1cc(N2CCc3c(c(C)nn3CC34CCC(N5C[C@@H](C)O[C@@H](C)C5)(CC3)CC4)C2)c2cnn(C)c2n1` [compound 110, (2S,6R)-4-(4-((5-(1,6-dimethyl-1H-pyrazolo[3,4-b]pyridin-4-yl)-3-methyl-4,5,6,7-tetrahydro-1H-pyrazolo[4,3-c]pyridin-1-yl)methyl)bicyclo[2.2.2]octan-1-yl)-2,6-dimethylmorpholine], the pIC50 is 8.15.

As to `CN[C@H](C)C(=O)NC12CCC(Cn3nc(C)c4c3CCN(c3cc(C)nc5c3cnn5C)C4)(CC1)CC2` [compound 117, (R)-N-(4-((5-(1,6-dimethyl-1H-pyrazolo[3,4-b]pyridin-4-yl)-3-methyl-4,5,6,7-tetrahydro-1H-pyrazolo[4,3-c]pyridin-1-yl)methyl)bicyclo[2.2.2]octan-1-yl)-2-(methylamino)propanamide], the pIC50 was 8.70.

Consider `Cc1nc(N2CCc3c(c(C)nn3CC34CCC(N5CCOCC5)(CC3)CC4)C2)c2cn[nH]c2n1` [compound 21, 4-(4-((3-methyl-5-(6-methyl-1H-pyrazolo[3,4-d]pyrimidin-4-yl)-4,5,6,7-tetrahydro-1H-pyrazolo[4,3-c]pyridin-1-yl)methyl)bicyclo[2.2.2]octan-1-yl)morpholine], for which the pIC50 was 7.62.

With `Cc1cc(N2CCc3c(c(C)nn3CC34CCC(NC5CCC5)(CC3)CO4)C2)c2cnn(C)c2n1` [compound 143, N-cyclobutyl-1-((5-(1,6-dimethyl-1H-pyrazolo[3,4-b]pyridin-4-yl)-3-methyl-4,5,6,7-tetrahydro-1H-pyrazolo[4,3-c]pyridin-1-yl)methyl)-2-oxabicyclo[2.2.2]octan-4-amine], the pIC50 is 7.39.

`Cc1cc(N2CCc3c(c(C)nn3CC34CCC(NC(=O)CCN(C)C)(CC3)CC4)C2)c2cnn(C)c2n1` [compound 105, N-(4-((5-(1,6-dimethyl-1H-pyrazolo[3,4-b]pyridin-4-yl)-3-methyl-4,5,6,7-tetrahydro-1H-pyrazolo[4,3-c]pyridin-1-yl)methyl)bicyclo[2.2.2]octan-1-yl)-3-(dimethylamino)propanamide]: the pIC50 is 7.85.

Turning to `Cc1cc(N2CCc3c(c(C)nn3CC34CCC(N5CCOC[C@H]5C)(CC3)CC4)C2)c2cnn(C)c2n1` [compound 129, (R)-4-(4-((5-(1,6-dimethyl-1H-pyrazolo[3,4-b]pyridin-4-yl)-3-methyl-4,5,6,7-tetrahydro-1H-pyrazolo[4,3-c]pyridin-1-yl)methyl)bicyclo[2.2.2]octan-1-yl)-3-methylmorpholine], the pIC50 was 8.10.

Regarding `Cc1cc(N2CCc3c(c(C)nn3CC34CCC(NC(=O)[C@@H]5COCCN5)(CC3)CC4)C2)c2cnn(C)c2n1` [Compound No. 8, (S)—N-(4-((5-(1,6-dimethyl-1H-pyrazolo[3,4-b]pyridin-4-yl)-3-methyl-4,5,6,7-tetrahydro-1H-pyrazolo[4,3-c]pyridin-1-yl)methyl)bicyclo[2.2.2]octan-1-yl)morpholine-3-carboxamide], the pIC50 is 8.40.

Take `Cc1nn(CC23CCC(NC4CCC4)(CC2)CC3)c2c1CN(c1ccnc(-c3ccccc3)c1)CC2` [compound 144, N-cyclobutyl-4-((3-methyl-5-(2-phenylpyridin-4-yl)-4,5,6,7-tetrahydro-1H-pyrazolo[4,3-c]pyridin-1-yl)methyl)bicyclo[2.2.2]octan-1-amine]: the pIC50 is 7.14.

In the case of `Cc1cc(N2CCc3c(c(C)nn3CC34CCC(NC(=O)C5CNC5)(CC3)CC4)C2)c2cnn(C)c2n1` [compound 131, N-(4-((5-(1,6-dimethyl-1H-pyrazolo[3,4-b]pyridin-4-yl)-3-methyl-4,5,6,7-tetrahydro-1H-pyrazolo[4,3-c]pyridin-1-yl)methyl)bicyclo[2.2.2]octan-1-yl)azetidine-3-carboxamide], the pIC50 was 8.52.

As to `CCNCC(=O)NC12CCC(Cn3nc(C)c4c3CCN(c3cc(C)nc5c3cnn5C)C4)(CC1)CC2` [compound 114, N-(4-((5-(1,6-dimethyl-1H-pyrazolo[3,4-b]pyridin-4-yl)-3-methyl-4,5,6,7-tetrahydro-1H-pyrazolo[4,3-c]pyridin-1-yl)methyl)bicyclo[2.2.2]octan-1-yl)-2-(ethylamino)acetamide], the pIC50 was 8.00.

In the case of `CCNCCC(=O)NC12CCC(Cn3nc(C)c4c3CCN(c3cc(C)nc5c3cnn5C)C4)(CC1)CC2` [compound 126, N-(4-((5-(1,6-dimethyl-1H-pyrazolo[3,4-b]pyridin-4-yl)-3-methyl-4,5,6,7-tetrahydro-1H-pyrazolo[4,3-c]pyridin-1-yl)methyl)bicyclo[2.2.2]octan-1-yl)-3-(ethylamino)propanamide], the pIC50 was 7.70.

For `Cc1nc(N2CCc3c(c(C)nn3CC34CCC(N5CC6(COC6)C5)(CC3)CC4)C2)c2c(n1)c(C)nn2C` [Compound No. 10, 6-(4-((3-methyl-5-(1,3,5-trimethyl-1H-pyrazolo[4,3-d]pyrimidin-7-yl)-4,5,6,7-tetrahydro-1H-pyrazolo[4,3-c]pyridin-1-yl)methyl)bicyclo[2.2.2]octan-1-yl)-2-oxa-6-azaspiro[3.3]heptane], the pIC50 is 7.25.

As for `CCN(C)CC(=O)NC12CCC(Cn3nc(C)c4c3CCN(c3cc(C)nc5c3cnn5C)C4)(CC1)CC2` [compound 132, N-(4-((5-(1,6-dimethyl-1H-pyrazolo[3,4-b]pyridin-4-yl)-3-methyl-4,5,6,7-tetrahydro-1H-pyrazolo[4,3-c]pyridin-1-yl)methyl)bicyclo[2.2.2]octan-1-yl)-2-(ethyl(methyl)amino)acetamide], the pIC50 was above 9.29.

Regarding `CCNCC(=O)NC12CCC(Cn3nc(C)c4c3CCN(c3cc(C)nc5cn[nH]c35)C4)(CC1)CC2` [compound 124, 2-(ethylamino)-N-(4-((3-methyl-5-(5-methyl-1H-pyrazolo[4,3-b]pyridin-7-yl)-4,5,6,7-tetrahydro-1H-pyrazolo[4,3-c]pyridin-1-yl)methyl)bicyclo[2.2.2]octan-1-yl)acetamide], the pIC50 is 5.98.

Turning to `Cc1nc(N2CCc3c(c(C)nn3CC34CCC(N5CCOCC5)(CC3)CC4)C2)c2c(n1)c(C)nn2C` [compound 25, 4-(4-((3-methyl-5-(1,3,5-trimethyl-1H-pyrazolo[4,3-d]pyrimidin-7-yl)-4,5,6,7-tetrahydro-1H-pyrazolo[4,3-c]pyridin-1-yl)methyl)bicyclo[2.2.2]octan-1-yl)morpholine], the pIC50 was 6.25.

As for `Cc1cc(N2CCc3c(c(C)nn3CC34CCC(N5CCN(C)C(=O)C5)(CC3)CC4)C2)c2cnn(C)c2n1` [Compound No. 104, 4-(4-((5-(1,6-dimethyl-1H-pyrazolo[3,4-b]pyridin-4-yl)-3-methyl-4,5,6,7-tetrahydro-1H-pyrazolo[4,3-c]pyridin-1-yl)methyl)bicyclo[2.2.2]octan-1-yl)-1-methylpiperazin-2-one], the pIC50 was 7.21.

Consider `Cc1cc(N2CCc3c(c(C)nn3CC34CCC(n5ccnc5)(CC3)CC4)C2)c2cnn(C)c2n1` [Compound No. 119, 1-((4-(1H-imidazol-1-yl)bicyclo[2.2.2]octan-1-yl)methyl)-5-(1,6-dimethyl-1H-pyrazolo[3,4-b]pyridin-4-yl)-3-methyl-4,5,6,7-tetrahydro-1H-pyrazolo[4,3-c]pyridine], for which the negative-log IC50 (pIC50) was 8.22.

With `Cc1nc(N2CCc3c(c(C)nn3CC34CCC(NC(=O)[C@@H]5COCCN5)(CC3)CC4)C2)c2c(n1)c(C)nn2C` [compound 33, (S)-N-(4-((3-methyl-5-(1,3,5-trimethyl-1H-pyrazolo[4,3-d]pyrimidin-7-yl)-4,5,6,7-tetrahydro-1H-pyrazolo[4,3-c]pyridin-1-yl)methyl)bicyclo[2.2.2]octan-1-yl)morpholine-3-carboxamide], the pIC50 was 7.26.

Regarding `Cc1cc(N2CCc3c(c(C)nn3CC34CCC(N5C[C@H](C)O[C@@H](C)C5)(CC3)CC4)C2)c2cnn(C)c2n1` [compound 111, (2S,6S)-4-(4-((5-(1,6-dimethyl-1H-pyrazolo[3,4-b]pyridin-4-yl)-3-methyl-4,5,6,7-tetrahydro-1H-pyrazolo[4,3-c]pyridin-1-yl)methyl)bicyclo[2.2.2]octan-1-yl)-2,6-dimethylmorpholine], the pIC50 is 7.55.
